Data from patent US20130150330A1, “DECOQUINATE PRODRUGS” (UNIVERSITY OF KANSAS, priority 2011, published 2013).

Assay: Solubility in water, increasing amounts added to 1 mL deionized water
Type: physicochemical
Conditions: decoquinate without the prodrug moiety, comparison
Procedure: Comparatively, decoquinate without the prodrug moiety is practically insoluble in water (<0.05 mg/ml). Improved solubility in water allows administration of the decoquinate prodrug by the intravenous and intramuscular routes. Additionally, water solubility also makes oral administration feasible by improving absorption from the GI tract.

- solubility: < 50 µg/mL
SMILES: CCCCCCCCCCOc1cc2c(O)c(C(=O)OCC)cnc2cc1OCC [decoquinate, ethyl 6-(decyloxy)-7-ethoxy-4-oxo-1,4-dihydroquinoline-3-carboxylate]
